Assays:
serotonin transporter = target: T1, serotonin transporter (Rattus norvegicus, UniProt P31652); experiment: [3H]-paroxetine binding, affinity for the serotonin transporter (rat frontal cortical membranes); set-up: species or system male Sprague-Dawley rats; settings: 3H-paroxetine (0.1 nM); for Ki: 60 min at 25° C., read-out: Ki (nM) ST [^3 H]paroxetine
T1 construct: frontal cortical membranes prepared from male Sprague-Dawley rats; from tissue; host or cells: frontal cortical membranes of male Sprague-Dawley rats
Procedure: A protocol similar to that used by Cheetham et al., Neuropharmacol., 32:737 (1993) was used to determine the affinity of compounds for the serotonin transporter. Briefly, frontal cortical membranes prepared from male Sprague-Dawley rats were incubated with ^3 H-paroxetine (0.1 nM) for 60 min at 25° C. All tubes also contained either vehicle, test compound (one to eight concentrations), or a saturating concentration of fluoxetine (10 μM) to define […]. All reactions are terminated by the addition of ice cold Tris buffer followed by rapid filtration using a Tom Tech filtration device to separate bound from free ^3 H-paroxetine. Bound radioactivity was quantitated using a Wallac 1205 Beta Plate® counter. Nonlinear regression analysis was used to determine IC50 values which were converted to Ki values using the method of Cheng and Prusoff, Biochem. Pharmacol., 22:3099 (1973); Ki=IC50/((Radioligand conc.)/(1+KD)).

human 5-HT1A receptor = target: T2, human 5-HT1A receptor (Homo sapiens, UniProt P08908); experiment: [3H]8-OH-DPAT competition binding at human 5-HT1A receptor (5-HT1A.CHO cell membranes); settings: [3H]8-OH-DPAT 1.5 nM; for inhibition at 1 µM: 0.5 h
T2 construct: expressed in transfected cells; host or cells: Chinese hamster ovary cells (5-HT1A.CHO), membranes
T2 sequence (P08908 1-422): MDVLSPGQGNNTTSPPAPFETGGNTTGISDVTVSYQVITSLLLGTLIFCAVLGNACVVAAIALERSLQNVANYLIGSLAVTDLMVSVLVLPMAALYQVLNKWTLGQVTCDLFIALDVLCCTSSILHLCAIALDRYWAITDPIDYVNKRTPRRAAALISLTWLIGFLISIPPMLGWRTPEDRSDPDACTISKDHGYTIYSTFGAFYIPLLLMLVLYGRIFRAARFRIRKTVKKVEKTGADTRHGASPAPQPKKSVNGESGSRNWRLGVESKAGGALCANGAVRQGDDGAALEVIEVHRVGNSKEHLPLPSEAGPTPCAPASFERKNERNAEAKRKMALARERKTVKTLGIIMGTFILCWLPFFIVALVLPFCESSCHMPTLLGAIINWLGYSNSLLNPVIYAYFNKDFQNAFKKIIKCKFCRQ
Procedure: The PCR cloning of the human 5-HT1A receptor subtype from a human genomic library has been described previously Chanda et al., Mol. Pharmacol., 43:516 (1993). A stable Chinese hamster ovary cell line expressing the human 5-HT1A receptor subtype (5-HT1A.CHO cells) was employed throughout this study. Cells were maintained in DMEM supplemented with 10% foetal calf serum, non-essential amino acids and penicillin/streptomycin.
Cells were grown to 95-100% confluency as a monolayer before membranes were harvested for binding studies. Cells were gently scraped from the culture plates, transferred to centrifuge tubes, and washed twice by centrifugation (2000 rpm for 10 min., 4° C.) in buffer (50 mM Tris; pH 7.5). The resulting pellets were aliquoted and placed at -80° C. On the day of assay, the cells were thawed on ice, and resuspended in buffer. Studies were conducted using [^3 H]8-OH-DPAT as the radioligand. The binding assay was performed in 96 well microtiter plates in a final total volume of 250 μL of buffer. Competition experiments were performed by using 7 concentrations of unlabelled drug and a final ligand concentration of 1.5 nM. Non-specific binding was determined in the presence of 10 μM 5HT. Saturation analysis was conducted by using [^3 H]8-OH-DPAT at concentrations ranging from 0.3-30 nM. Following a 30 minute incubation at room temperature, the reaction was terminated by the addition of ice cold buffer and rapid filtration using a M-96 Brandel Cell Harvester (Gaithersburg, Md) through a GF/B filter presoaked for 30 minutes in 0.5% polyethyleneimine.

T1 sequence (P31652 whole entry): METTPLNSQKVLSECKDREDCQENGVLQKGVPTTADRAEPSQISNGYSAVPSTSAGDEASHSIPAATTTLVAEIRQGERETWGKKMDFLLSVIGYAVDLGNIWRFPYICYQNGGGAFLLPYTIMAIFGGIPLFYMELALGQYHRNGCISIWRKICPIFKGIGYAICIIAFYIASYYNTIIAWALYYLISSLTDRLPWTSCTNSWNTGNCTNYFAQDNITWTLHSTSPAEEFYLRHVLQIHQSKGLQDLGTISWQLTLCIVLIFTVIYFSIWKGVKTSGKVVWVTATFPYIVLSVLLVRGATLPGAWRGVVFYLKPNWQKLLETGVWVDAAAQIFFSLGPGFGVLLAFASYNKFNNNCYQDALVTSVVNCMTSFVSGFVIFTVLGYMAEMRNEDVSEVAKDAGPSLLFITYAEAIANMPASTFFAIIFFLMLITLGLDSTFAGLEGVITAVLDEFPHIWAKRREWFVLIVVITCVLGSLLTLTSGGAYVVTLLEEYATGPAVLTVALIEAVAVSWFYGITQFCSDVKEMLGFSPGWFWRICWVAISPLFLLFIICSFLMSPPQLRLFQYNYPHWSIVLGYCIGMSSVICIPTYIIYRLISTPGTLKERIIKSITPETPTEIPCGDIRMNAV

Row | Structure (SMILES) | inhibition at 1 µM (serotonin transporter; 1 h, @ 1 μM, read-out: ST [^3 H]paroxetine, % @ 1 μM) | inhibition at 1 µM (human 5-HT1A receptor) | Ki (serotonin transporter) | Ki (human 5-HT1A receptor; 30 minute incubation at room temperature)
1 | Fc1ccc2[nH]cc([C@H]3CC[C@@H](NCC4COc5ccccc5N4)CC3)c2c1 (relative stereo) [2 (cis), (3,4-Dihydro-benzo[1,4]oxazine-3-ylmethyl)-[cis-4-(5-fluoro-1H-indol-3-yl)-cyclohexyl]-amine] | 34% | 9% | – | –
2 | Fc1ccc2[nH]cc([C@H]3CC[C@H](NCC4COc5ccccc5N4)CC3)c2c1 (relative stereo) [2 (trans), (3,4-Dihydro-benzo[1,4]oxazine-3-ylmethyl)-[trans-4-(5-fluoro-1H-indol-3-yl)-cyclohexyl]-amine] | – | 20% | 10 nM | –
3 | Fc1ccc2[nH]cc([C@H]3CC[C@H](NCC4CNc5ccccc5O4)CC3)c2c1 (relative stereo) [1 (trans), (3,4-Dihydro-benzo[1,4]oxazine-2-ylmethyl)-[trans-4-(5-fluoro-1H-indol-3-yl)-cyclohexyl]-amine] | – | 44% | 24 nM | –
4 | Fc1ccc2[nH]cc([C@H]3CC[C@@H](NCC4CNc5ccccc5O4)CC3)c2c1 (stereo partly drawn) [1 (cis), (3,4-Dihydro-benzo[1,4]oxazine-2-ylmethyl)-[cis-4-(5-floro-1H-indol-3-yl)-cyclohexyl]-amine] | – | – | 44 nM | 2430 nM

Reference: patent US6162803A, “Indol-3-yl-cyclohexyl amine derivatives for the treatment of depression” (American Home Products Corp., priority 1999, dated 2000)
